From ChEMBL document CHEMBL3045927, “Synthesis of 4-methyl-1,2,3-thiadiazole derivatives via Ugi reaction and their biological activities” (2010)

Experiments:
Type in all cases: functional
Tobacco mosaic virus [1] = experiment: In vitro antiviral activity against Tobacco mosaic virus (TMV) infected tobacco leaves at 100 ug/ml
Rhizoctonia solani = experiment: Fungicidal activity against Rhizoctonia solani at 50 ug/ml by growth inhibition method; design: scale not given: the % may be the effect or the level left
Cercospora beticola = experiment: Fungicidal activity against Cercospora beticola at 50 ug/ml by growth inhibition method; design: scale not given: the % may be the effect or the level left
Mycosphaerella arachidis = experiment: Fungicidal activity against Mycosphaerella arachidis at 50 ug/ml by growth inhibition method; design: scale not given: the % may be the effect or the level left
Tobacco mosaic virus [2] = experiment: In vitro antiviral activity against Tobacco mosaic virus (TMV) infected tobacco leaves at 500 ug/ml
Fusarium graminearum = experiment: Fungicidal activity against Fusarium graminearum at 50 ug/ml by growth inhibition method; design: scale not given: the % may be the effect or the level left
Colletotrichum lagenaria = experiment: Fungicidal activity against Colletotrichum lagenaria at 50 ug/ml by growth inhibition method; design: scale not given: the % may be the effect or the level left
Alternaria solani = experiment: Fungicidal activity against Alternaria solani at 50 ug/ml by growth inhibition method; design: scale not given: the % may be the effect or the level left
Thanatephorus cucumeris = experiment: Fungicidal activity against Thanatephorus cucumeris at 50 ug/ml by growth inhibition method; design: scale not given: the % may be the effect or the level left
[3] = test system: Botryosphaeria berengeriana; experiment: Fungicidal activity against Botryosphaeria berengeriana at 50 ug/ml by growth inhibition method; design: scale not given: the % may be the effect or the level left
Pyricularia grisea = experiment: Fungicidal activity against Magnaporthe grisea at 50 ug/ml by growth inhibition method; design: scale not given: the % may be the effect or the level left
Phytophthora infestans = experiment: Fungicidal activity against Phytophthora infestans at 50 ug/ml by growth inhibition method; design: scale not given: the % may be the effect or the level left
Fusarium oxysporum = experiment: Fungicidal activity against Fusarium oxysporum at 50 ug/ml by growth inhibition method; design: scale not given: the % may be the effect or the level left

| SMILES | inhibition at 100 µg/mL (Tobacco mosaic virus [1]) | Activity (Rhizoctonia solani) | Activity (Cercospora beticola) | Activity (Mycosphaerella arachidis) | inhibition at 500 µg/mL (Tobacco mosaic virus [2]) | Activity (Fusarium graminearum) | Activity (Colletotrichum lagenaria) | Activity (Alternaria solani) | Activity (Thanatephorus cucumeris) | Activity [3] | Activity (Pyricularia grisea) | Activity (Phytophthora infestans) | Activity (Fusarium oxysporum) |
| --- | --- | --- | --- | --- | --- | --- | --- | --- | --- | --- | --- | --- | --- |
| Cc1ccc(N(C(=O)c2snnc2C)C(C(=O)NC2CCCCC2)c2ccccc2F)cc1F (configuration not stated) | 22% | 49% | 0% | 29% | 23% | 0% | 42% | 38% | 33% | 31% | 43% | 41% |  |
| Cc1ccc(N(C(=O)c2snnc2C)C(C(=O)NC2CCCCC2)c2cccc(F)c2)cc1F (configuration not stated) | 9% | 42% | 17% | 21% | 29% | 38% | 5% | 0% | 0% | 0% | 0% | 5% |  |
| Cc1ccc(N(C(=O)c2snnc2C)C(C(=O)NC2CCCCC2)c2ccc(F)cc2)cc1F (configuration not stated) | 40% | 40% | 0% | 43% | 36% | 8% | 26% | 44% | 17% | 19% | 14% | 29% |  |
| Cc1ccc(N(C(=O)c2snnc2C)C(C(=O)NC2CCCCC2)c2ccc(C(F)(F)F)cc2)cc1F (configuration not stated) | 10% | 35% | 50% | 57% | 25% | 24% | 5% | 0% | 6% | 0% | 14% | 0% |  |
| Cc1ccc(N(C(=O)c2snnc2C)C(C(=O)NC2CCCCC2)c2ccccc2[N+](=O)[O-])cc1F (configuration not stated) | 17% | 37% | 67% | 21% | 29% | 41% | 5% | 0% | 0% | 0% | 0% | 5% |  |
| Cc1cccc(C(C(=O)NC2CCCCC2)N(C(=O)c2snnc2C)c2ccc(C)c(F)c2)c1 (configuration not stated) | 18% | 28% | 33% | 21% | 29% | 34% | 0% | 0% | 0% | 0% | 0% | 0% |  |
| Cc1ccc(C(C(=O)NC2CCCCC2)N(C(=O)c2snnc2C)c2ccc(C)c(F)c2)cc1 (configuration not stated) | 52% | 33% | 17% | 14% | 36% | 28% | 0% | 0% | 0% | 0% | 29% | 5% |  |
| Cc1ccc(N(C(=O)c2snnc2C)C(C(=O)NC2CCCCC2)c2ccccc2C(F)(F)F)cc1Cl (configuration not stated) | 18% | 60% | 0% | 29% | 38% | 12% | 53% | 38% | 33% | 46% | 43% | 41% |  |
| Cc1ccc(N(C(=O)c2snnc2C)C(C(=O)NC2CCCCC2)c2ccc(C(F)(F)F)cc2)cc1Cl (configuration not stated) | 11% | 37% | 0% | 57% | 34% | 19% | 16% | 31% | 22% | 19% | 14% | 29% |  |
| Cc1ccc(N(C(=O)c2snnc2C)C(C(=O)NC2CCCCC2)c2cccc([N+](=O)[O-])c2)cc1Cl (configuration not stated) | 11% | 40% | 0% | 57% | 9% | 12% | 26% | 38% | 20% | 19% | 0% | 41% |  |
| Cc1ccc(N(C(=O)c2snnc2C)C(C(=O)NC2CCCCC2)c2ccc([N+](=O)[O-])cc2)cc1Cl (configuration not stated) | 26% | 29% | 11% | 16% | 32% |  | 24% | 35% | 25% | 38% | 18% | 12% | 22% |
| Cc1ccc(N(C(=O)c2snnc2C)C(C(=O)NC2CCCCC2)c2ccccc2C)cc1Cl (configuration not stated) | 38% | 43% | 0% | 14% | 42% | 23% | 37% | 56% | 43% | 35% | 0% | 35% |  |
| Cc1cccc(C(C(=O)NC2CCCCC2)N(C(=O)c2snnc2C)c2ccc(C)c(Cl)c2)c1 (configuration not stated) | 11% | 63% | 27% | 17% | 19% |  | 14% | 37% | 24% | 35% | 10% | 35% | 18% |
| Cc1ccc(C(C(=O)NC2CCCCC2)N(C(=O)c2snnc2C)c2ccc(C)c(Cl)c2)cc1 (configuration not stated) | 25% | 69% | 27% | 35% | 40% |  | 18% | 42% | 24% | 26% | 50% | 26% | 18% |
| Cc1ccc(N(C(=O)c2snnc2C)C(C(=O)NC2CCCCC2)c2cccc(O)c2)cc1Cl (configuration not stated) | 24% | 43% | 44% | 47% | 35% |  | 44% | 56% | 22% | 48% | 29% | 24% | 34% |
| Cc1ccc(N(C(=O)c2snnc2C)C(C(=O)NC2CCCCC2)c2ccc(O)cc2)cc1Cl (configuration not stated) | 14% | 46% | 33% | 53% | 17% |  | 8% | 50% | 37% | 31% | 41% | 32% | 38% |
| Cc1ccc(N(C(=O)c2snnc2C)C(C(=O)NC2CCCCC2)c2ccccc2Cl)cc1F (configuration not stated) | 21% | 37% | 0% | 29% | 23% | 23% | 26% | 19% | 22% | 31% | 14% | 47% |  |
| Cc1ccc(N(C(=O)c2snnc2C)C(C(=O)NC2CCCCC2)c2cccc(Cl)c2)cc1F (configuration not stated) | 15% | 34% | 13% | 14% | 39% | 27% | 16% | 25% | 28% | 8% | 29% | 29% |  |
| Cc1ccc(N(C(=O)c2snnc2C)C(C(=O)NC2CCCCC2)c2ccc(Cl)cc2)cc1F (configuration not stated) | 28% | 43% | 0% | 0% | 30% | 12% | 37% | 38% | 22% | 23% | 43% | 24% |  |
| Cc1ccc(N(C(=O)c2snnc2C)C(C(=O)NC2CCCCC2)c2ccc(Cl)cc2)cc1Cl (configuration not stated) | 38% | 40% | 0% | 29% | 29% | 35% | 32% | 38% | 50% | 27% | 29% | 41% |  |
| Cc1ccc(N(C(=O)c2snnc2C)C(C(=O)NC2CCCCC2)c2ccccc2F)cc1Cl (configuration not stated) | 18% | 49% | 16% | 43% | 24% | 46% | 47% | 38% | 33% | 30% | 14% | 35% |  |
